These are literature values, as cited in patent US20260130846A1, “ORAL PRODUCT” (NICOVENTURES TRADING LIMITED, priority 2022, published 2026).

For data set [1] the following is noted: humans.
For data set [2] the following is noted: mammals.

Structures are written as SMILES.

As to `CCNC(=O)CC[C@H](N)C(=O)O` [Theanine, L-γ-glutamylethylamide], in data set [1], the “Absorption; plasma levels after oral consumption” value is reported as “rapidly absorbed, with plasma levels rising in a linear dose-related manner”. Further, the “Time for which brain levels continue to increase after consumption” value in data set [2] is 4 h.
